Patent publication US4472404A, “8-Quinolinyl carbamates and their use as urinary tract antimicrobials” (priority 1982, dated 1984)
≈ marks a conversion by molar mass, not a printed value.

The molecules below were run on Aspergillus niger (assay: Agar-plate minimum inhibitory concentration (Example 12)). Conditions: agar, 72-120 hours, read-out: Minimum Inhibitory Concentration.
Assay type: cell-based
Method: (§1) The test compound was added to molten agar as a solution (when conveniently soluble in a solvent such as dimethylformamide) or a suspension forming a mixture having a concentration of 0.05 percent (500 ppm). The mixture was stirred and poured into plates to harden. When hardened, the plates were inoculated with various bacteria and fungi. The bacteria-inoculated plates were incubated at 37° C. for 24 hours, while the fungi-inoculated plates were incubated for about 72-120 hours. Following incubation, the plates were examined for growth or inhibition of the respective organisms.
(§2) After the initial readings, compounds showing sufficient activity were re-tested at various concentrations to determine the minimum inhibitory concentration (in ppm) of the compounds of the invention against the various bacteria and fungi tested.
`CCOC(=O)CNC(=O)Oc1c(Br)cc(Br)c2cccnc12` [Example 2, Ethyl N-(((5,7-dibromo-8-quinolinyl)oxy)carbonyl)glycinate] gave an MIC of 50 µg/mL (≈ 116 µM).

The molecules below were run on Bacillus subtilis in the same assay as above. Conditions: agar, 37° C., 24 hours, read-out: Minimum Inhibitory Concentration.
Assay type: cell-based
Method: as §1, §2
`CCOC(=O)CNC(=O)Oc1c(Br)cc(Br)c2cccnc12` [Example 2, Ethyl N-(((5,7-dibromo-8-quinolinyl)oxy)carbonyl)glycinate] showed an MIC of 0.5 µg/mL (≈ 1.16 µM).

The molecules below were run on Candida albicans in the same assay as above. Conditions: agar, 72-120 hours, read-out: Minimum Inhibitory Concentration.
Assay type: cell-based
Method: as §1, §2
`CCOC(=O)CNC(=O)Oc1c(Br)cc(Br)c2cccnc12` [Example 2, Ethyl N-(((5,7-dibromo-8-quinolinyl)oxy)carbonyl)glycinate] showed an MIC of 50 µg/mL (≈ 116 µM).

The molecules below were run on Candida pelliculosa in the same assay as above. Conditions: Hansenula anomala; Candida pelliculosa; agar, 72-120 hours; read-out: Minimum Inhibitory Concentration.
Assay type: cell-based
Method: as §1, §2
`CCOC(=O)CNC(=O)Oc1c(Br)cc(Br)c2cccnc12` [Example 2, Ethyl N-(((5,7-dibromo-8-quinolinyl)oxy)carbonyl)glycinate] showed an MIC of 10 µg/mL (≈ 23.1 µM).

The molecules below were run on Ceratocystis ips in the same assay as above. Conditions: Ceratocystis ips; agar, 72-120 hours; read-out: Minimum Inhibitory Concentration.
Assay type: cell-based
Method: as §1, §2
Work on `CCOC(=O)CNC(=O)Oc1c(Br)cc(Br)c2cccnc12` [Example 2, Ethyl N-(((5,7-dibromo-8-quinolinyl)oxy)carbonyl)glycinate] yielded an MIC of 50 µg/mL (≈ 116 µM).

These molecules were tested on Salmonella typhosa in the same assay as above. Conditions: Salmonella enterica; Salmonella typhosa; agar, 37° C., 24 hours; read-out: Minimum Inhibitory Concentration.
Assay type: cell-based
Method: as §1, §2
For `CCOC(=O)CNC(=O)Oc1c(Br)cc(Br)c2cccnc12` [Example 2, Ethyl N-(((5,7-dibromo-8-quinolinyl)oxy)carbonyl)glycinate], the MIC was 50 µg/mL (≈ 116 µM).

These molecules were tested on Streptococcus mutans in the same assay as above. Conditions: agar, 37° C., 24 hours, read-out: Minimum Inhibitory Concentration.
Assay type: cell-based
Method: as §1, §2
For `CCOC(=O)CNC(=O)Oc1c(Br)cc(Br)c2cccnc12` [Example 2, Ethyl N-(((5,7-dibromo-8-quinolinyl)oxy)carbonyl)glycinate], the MIC was 50 µg/mL (≈ 116 µM).

Each molecule was assayed on Trichophyton mentagrophytes in the same assay as above. Conditions: agar, 72-120 hours, read-out: Minimum Inhibitory Concentration.
Assay type: cell-based
Method: as §1, §2
With `CCOC(=O)CNC(=O)Oc1c(Br)cc(Br)c2cccnc12` [Example 2, Ethyl N-(((5,7-dibromo-8-quinolinyl)oxy)carbonyl)glycinate] the MIC was 50 µg/mL (≈ 116 µM).

These molecules were tested on Enterobacter aerogenes ATCC 13048 (assay: Minimum inhibitory concentration, urinary tract organisms (Example 13)). Conditions: Klebsiella aerogenes, ATCC13048; Ea 13048; read-out: Minimum Inhibitory Concentration.
Assay type: cell-based
Method: as §1, §2
(§3) Following a procedure substantially the same as that described in Example 12, the minimum inhibitory concentration for the compounds described herein was determined for various organisms representative of those commonly associated with urinary tract infections.
(§4) The organisms used in this procedure and the abbreviations designated in Table 3 are as follows: […]
With `CCOC(=O)CNC(=O)Oc1c(Br)cc(Br)c2cccnc12` [Example 2, Ethyl N-(((5,7-dibromo-8-quinolinyl)oxy)carbonyl)glycinate] the MIC was 75 µg/mL (≈ 174 µM).

Each molecule was assayed on Escherichia coli ATCC 11229 in the same assay as above. Conditions: ATCC11229, Ec 11229, read-out: Minimum Inhibitory Concentration.
Assay type: cell-based
Method: as §1, §2, §3, §4
Molecule `CCOC(=O)CNC(=O)Oc1c(Br)cc(Br)c2cccnc12` [Example 2, Ethyl N-(((5,7-dibromo-8-quinolinyl)oxy)carbonyl)glycinate] has an MIC of 25 µg/mL (≈ 57.9 µM).

Each molecule was assayed on Escherichia coli ATCC 25922 in the same assay as above. Conditions: ATCC25922, Ec 25922, read-out: Minimum Inhibitory Concentration.
Assay type: cell-based
Method: as §1, §2, §3, §4
With `CCOC(=O)CNC(=O)Oc1c(Br)cc(Br)c2cccnc12` [Example 2, Ethyl N-(((5,7-dibromo-8-quinolinyl)oxy)carbonyl)glycinate] the MIC was 25 µg/mL (≈ 57.9 µM).

Each molecule was assayed on Escherichia coli ATCC 4157 in the same assay as above. Conditions: ATCC4157, Ec 4157, read-out: Minimum Inhibitory Concentration.
Assay type: cell-based
Method: as §1, §2, §3, §4
Work on `CCOC(=O)CNC(=O)Oc1c(Br)cc(Br)c2cccnc12` [Example 2, Ethyl N-(((5,7-dibromo-8-quinolinyl)oxy)carbonyl)glycinate] yielded an MIC of 25 µg/mL (≈ 57.9 µM).

Each molecule was assayed on Escherichia coli ATCC 9723 in the same assay as above. Conditions: ATCC9723, Ec 9723, read-out: Minimum Inhibitory Concentration.
Assay type: cell-based
Method: as §1, §2, §3, §4
Molecule `CCOC(=O)CNC(=O)Oc1c(Br)cc(Br)c2cccnc12` [Example 2, Ethyl N-(((5,7-dibromo-8-quinolinyl)oxy)carbonyl)glycinate] has an MIC of 25 µg/mL (≈ 57.9 µM).

Each molecule was assayed on Klebsiella pneumoniae ATCC 23357 in the same assay as above. Conditions: ATCC23357, Kp 23357, read-out: Minimum Inhibitory Concentration.
Assay type: cell-based
Method: as §1, §2, §3, §4
For `CCOC(=O)CNC(=O)Oc1c(Br)cc(Br)c2cccnc12` [Example 2, Ethyl N-(((5,7-dibromo-8-quinolinyl)oxy)carbonyl)glycinate], the MIC was 250 µg/mL (≈ 579 µM).

Each molecule was assayed on Klebsiella pneumoniae M-1 in the same assay as above. Conditions: M1, Kp M-1, read-out: Minimum Inhibitory Concentration.
Assay type: cell-based
Method: as §1, §2, §3, §4
Work on `CCOC(=O)CNC(=O)Oc1c(Br)cc(Br)c2cccnc12` [Example 2, Ethyl N-(((5,7-dibromo-8-quinolinyl)oxy)carbonyl)glycinate] yielded an MIC of 50 µg/mL (≈ 116 µM).

These molecules were tested on Klebsiella pneumoniae M-2 in the same assay as above. Conditions: M2, Kp M-2, read-out: Minimum Inhibitory Concentration.
Assay type: cell-based
Method: as §1, §2, §3, §4
For `CCOC(=O)CNC(=O)Oc1c(Br)cc(Br)c2cccnc12` [Example 2, Ethyl N-(((5,7-dibromo-8-quinolinyl)oxy)carbonyl)glycinate], the MIC was 25 µg/mL (≈ 57.9 µM).

These molecules were tested on Klebsiella pneumoniae M-6 in the same assay as above. Conditions: M6, Kp M-6, read-out: Minimum Inhibitory Concentration.
Assay type: cell-based
Method: as §1, §2, §3, §4
Work on `CCOC(=O)CNC(=O)Oc1c(Br)cc(Br)c2cccnc12` [Example 2, Ethyl N-(((5,7-dibromo-8-quinolinyl)oxy)carbonyl)glycinate] yielded an MIC of 25 µg/mL (≈ 57.9 µM).

These molecules were tested on Proteus mirabilis 470/1 in the same assay as above. Conditions: Pm 470/1, read-out: Minimum Inhibitory Concentration.
Assay type: cell-based
Method: as §1, §2, §3, §4
Molecule `CCOC(=O)CNC(=O)Oc1c(Br)cc(Br)c2cccnc12` [Example 2, Ethyl N-(((5,7-dibromo-8-quinolinyl)oxy)carbonyl)glycinate] has an MIC of 25 µg/mL (≈ 57.9 µM).

These molecules were tested on Pseudomonas aeruginosa ATCC 10145 in the same assay as above. Conditions: ATCC10145, Pa 10145, read-out: Minimum Inhibitory Concentration.
Assay type: cell-based
Method: as §1, §2, §3, §4
`CCOC(=O)CNC(=O)Oc1c(Br)cc(Br)c2cccnc12` [Example 2, Ethyl N-(((5,7-dibromo-8-quinolinyl)oxy)carbonyl)glycinate] was tested, and the MIC was 25 µg/mL (≈ 57.9 µM).

What follows are molecules tested on Pseudomonas aeruginosa ATCC 27853 in the same assay as above. Conditions: ATCC27853, Pa 27853, read-out: Minimum Inhibitory Concentration.
Assay type: cell-based
Method: as §1, §2, §3, §4
Work on `CCOC(=O)CNC(=O)Oc1c(Br)cc(Br)c2cccnc12` [Example 2, Ethyl N-(((5,7-dibromo-8-quinolinyl)oxy)carbonyl)glycinate] yielded an MIC of 75 µg/mL (≈ 174 µM).

The molecules below were run on Pseudomonas aeruginosa ATCC 7700 in the same assay as above. Conditions: ATCC7700, Pa 7700, read-out: Minimum Inhibitory Concentration.
Assay type: cell-based
Method: as §1, §2, §3, §4
With `CCOC(=O)CNC(=O)Oc1c(Br)cc(Br)c2cccnc12` [Example 2, Ethyl N-(((5,7-dibromo-8-quinolinyl)oxy)carbonyl)glycinate] the MIC was 250 µg/mL (≈ 579 µM).

Each molecule was assayed on Pseudomonas aeruginosa PRD-10 in the same assay as above. Conditions: PRD10, Pa PRD-10, read-out: Minimum Inhibitory Concentration.
Assay type: cell-based
Method: as §1, §2, §3, §4
`CCOC(=O)CNC(=O)Oc1c(Br)cc(Br)c2cccnc12` [Example 2, Ethyl N-(((5,7-dibromo-8-quinolinyl)oxy)carbonyl)glycinate] gave an MIC of 75 µg/mL (≈ 174 µM).

The molecules below were run on Serratia marcescens M-1 in the same assay as above. Conditions: M1, Sr M-1, read-out: Minimum Inhibitory Concentration.
Assay type: cell-based
Method: as §1, §2, §3, §4
In the case of `CCOC(=O)CNC(=O)Oc1c(Br)cc(Br)c2cccnc12` [Example 2, Ethyl N-(((5,7-dibromo-8-quinolinyl)oxy)carbonyl)glycinate], the MIC is reported as 250 µg/mL (≈ 579 µM).

The molecules below were run on Staphylococcus aureus ATCC 25923 in the same assay as above. Conditions: ATCC25923, Sa 25923, read-out: Minimum Inhibitory Concentration.
Assay type: cell-based
Method: as §1, §2, §3, §4
Work on `CCOC(=O)CNC(=O)Oc1c(Br)cc(Br)c2cccnc12` [Example 2, Ethyl N-(((5,7-dibromo-8-quinolinyl)oxy)carbonyl)glycinate] yielded an MIC of 25 µg/mL (≈ 57.9 µM).
